From patent US8178543B2, “Bi- and tricyclic fused pyrimidines as tyrosine kinase inhibitors” (Takeda Pharmaceutical Company Limited, priority 2004, dated 2012) come the findings set out here.

Where only a bound is given, the exact number is not on record here.

The subject of assay [1] is human breast cancer cell BT-474. Nature of the assay: Inhibitory action on breast cancer cell BT-474 proliferation in vitro. Type of assay: cell-based. The following applies: 120 h, BT-474 cells, cultured 5 days, SRB staining. The protocol:
A suspension of human breast cancer cell BT-474 (100 μl (6,000 cells)) were sown to a 96-well microplate and cultured in an incubator (37° C., 5% carbon dioxide). On the following day, 100 μl of a solution of each test compound, which was previously diluted 2-fold, was added, and the cells were cultured for 5 days. After the culture medium containing the test compound was removed, the cells were washed and fixed with 50% trichloroacetic acid, after which a 0.4% (w/v) SRB solution (dissolved in 1% acetic acid) was added to fix and stain the cell protein (Skehan et al., Journal of the National Cancer Institute, Vol. 82, pp. 1107-1112, 1990). After washing with a 1% acetic acid solution, 100 μl of an extract (10 mM Tris solution) was added to extract the pigment, and absorbance was measured at an absorption wavelength of 550 nm to quantify the amount of cells as protein content. Taking as 100% the protein content for the control group, which received no test compound solution, the ratio of the residual protein content for each treatment group was determined, and the compound concentration required to achieve 50% suppression of the residual cell content relative to the control (IC50 value) was calculated.
For orientation: In SRB staining, fixed cells bind dye roughly in proportion to their protein.

Assay [2] deals with T1, EGF receptor intracellular domain protein (Homo sapiens, UniProt P00533).
T1 construct: encoding EGF receptor intracellular domain region, so that the protein contains an N-terminal Flag tag; made in house; host or cells: SF-21 insect cells, recombinant baculovirus BAC-EGFR
T1 sequence (P00533 669-1210 limits assumed): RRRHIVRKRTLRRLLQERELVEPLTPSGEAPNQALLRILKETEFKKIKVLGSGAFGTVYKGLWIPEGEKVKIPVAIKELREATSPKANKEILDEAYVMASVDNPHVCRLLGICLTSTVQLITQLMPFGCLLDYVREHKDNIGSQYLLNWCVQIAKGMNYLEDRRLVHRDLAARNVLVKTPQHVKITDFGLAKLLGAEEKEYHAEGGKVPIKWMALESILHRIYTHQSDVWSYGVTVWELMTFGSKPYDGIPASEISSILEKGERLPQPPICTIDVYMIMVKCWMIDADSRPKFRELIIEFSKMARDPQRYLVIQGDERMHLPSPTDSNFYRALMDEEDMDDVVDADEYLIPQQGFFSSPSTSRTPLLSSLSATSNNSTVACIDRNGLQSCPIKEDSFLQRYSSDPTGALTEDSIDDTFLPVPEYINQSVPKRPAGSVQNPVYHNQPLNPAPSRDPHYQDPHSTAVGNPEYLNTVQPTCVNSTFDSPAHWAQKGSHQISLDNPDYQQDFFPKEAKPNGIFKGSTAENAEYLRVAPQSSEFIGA
The experiment in a line: Determination of EGF receptor kinase inhibitory activity. Type of assay: biochemical. The following applies: 1.0 μM test compound; biotinyl-poly-Glu:Tyr (4:1), AlphaScreen, 25° C., 10 min; read-out: EGF receptor kinase Inhibitory rate (%) at 1.0 μM. The protocol: Human EGF receptor gene was cloned by RT-PCR using total RNA prepared from A431 cells as a template. The primer for RT-PCR was prepared from nucleotide sequence (Genbank Accession XM—167493) information of EGF receptor gene by adding a nucleotide sequence encoding flag peptide and a restriction enzyme recognition sequence to a nucleotide sequence (2182-3810 of Genbank Accession XM—167493) encoding EGF receptor intracellular domain region, so that the protein contains an N-terminal Flag tag. The primer nucleotide sequence is shown below.
The RT reaction was conducted using SuperScript First-Strand Synthesis System for RT-PCR (Invitrogen) and the PCR reaction was conducted using a KOD-plus kit (TOYOBO). The obtained PCR product was electrophoresed on agarose gel (1%), the DNA fragment amplified by PCR was recovered from the gel, and then digested with restriction enzymes Sal I and Sph I. The DNA treated with the restriction enzymes was electrophoresed on agarose gel (1%), and the obtained DNA fragment was recovered and ligated to plasmid pFASTBAC1 (Invitrogen) digested with restriction enzymes Sal I and Sph I to give expression plasmid pFB-EGFR. The nucleotide sequence of insertion fragment was confirmed and found to be identical with the nucleotide sequence (2182-3810 of Genbank Accession XM—167493) of EGFR intracellular domain. Furthermore, using BAC-TO-BAC Baculovirus Expression System (Invitrogen), virus stock BAC-EGFR of recombinant baculovirus was prepared.
SF-21 cells were sown at 1×10^6 cells/mL to Sf-900II SFM medium (1 L, Invitrogen) containing 10% fetal bovine serum (trace), 50 mg/L gentamicin (Invitrogen) and 0.1% Pluronic F-68 (Invitrogen), and shaking culture was performed using a 2 L volume Erlenmeyer flask at 27° C., 100 rpm. After culturing for 24 hrs, recombinant baculovirus BAC-EGFR (13.4 mL) was added, and the mixture was further cultured for 3 days. The culture medium was centrifuged at 2,000 rpm for 5 min. to give virus-infected cells. The infected cells were washed with a phosphate buffered saline (Invitrogen), centrifuged under the same conditions, and the cells were preserved at −80° C. The cryopreserved cells were thawed in ice, suspended in buffer A (50 mM Tris buffer (30 mL, pH7.4) containing 20% glycerol, 0.15 M NaCl) supplemented with Complete Protease Inhibitor (Boehringer), and ruptured 3 times with a Polytron homogenizer (Kinematica) at 20,000 rpm for 30 sec. The ruptured medium was clarified by centrifugation at 40,000 rpm for 30 min. and filtered with a 0.45 μm filter. The filtrate was passed through a column packed with Anti-FLAG M2 Affinity Gel (4 mL, Sigma) at a flow rate of about 0.5 mL/min. The column was washed with buffer A, and eluted with buffer A containing 100 μg/mL of FLAG peptide. The eluate was concentrated with Vivaspin 20 (Vivascience) having a molecular weight cut off of 30K. The buffer of this concentrate was exchanged using NAPE 25 column (Amersham Bioscience) equilibrated with buffer A. The fractions containing EGF receptor intracellular domain protein were collected, glycerol was added to the final concentration of 50% and cryopreserved at −80° C.
A test compound dissolved in dimethyl sulfoxide (DMSO) was diluted with a buffer (50 mM Tris-HCl (pH 7.5), 5 mM MgCl2, 5 mM MnCl2, 2 mM dithiothreitol, 0.01% Tween-20). To this compound solution (5 μL) was added a buffer (10 μL) containing 250 ng/mL of EGF receptor intracellular domain protein and 250 ng/mL of biotin labeled polypeptide biotinyl-poly-Glu:Tyr (4:1) (CIS bio International). […]

Turning to `CN(C)C/C=C/C(=O)NCc1cc2ncnc(Nc3ccc(OCc4cccc(F)c4)c(Cl)c3)c2[nH]1` [Example 82, (2E)-N-{[4-({3-chloro-4-[(3-fluorobenzyl)oxy]phenyl}amino)-5H-pyrrolo[3,2-d]pyrimidin-6-yl]methyl}-4-(dimethylamino)but-2-enamide], the IC50 in assay [1] was below 100 nM.
`CN(C)C/C=C/C(=O)NC/C=C/c1cc2ncnc(Nc3ccc(OCc4cccc(F)c4)c(Cl)c3)c2[nH]1` [Example 92, (2E)-N-{(2E)-3-[4-({3-chloro-4-[(3-fluorobenzyl)oxy]phenyl}amino)-5H-pyrrolo[3,2-d]pyrimidin-6-yl]prop-2-enyl}-4-(dimethylamino)but-2-enamide] came in with an IC50 in assay [1] below 100 nM. In assay [2], the inhibition at 1 µM is 98%.
As for `CC(C)(C(=O)NCCn1ccc2ncnc(Nc3ccc(Oc4cccc(C(F)(F)F)c4)c(Cl)c3)c21)S(C)(=O)=O` [Example 169, N-{2-[4-({3-chloro-4-[3-(trifluoromethyl)phenoxy]phenyl}amino)-5H-pyrrolo[3,2-d]pyrimidin-5-yl]ethyl}-2-methyl-2-(methylsulfonyl)propanamide], in assay [1], the 50% inhibitory concentration (IC50) is below 100 nM.
Still for that read-out and setting: the figure for `CC(C)(C)S(=O)(=O)CCOCCn1ccc2ncnc(Nc3ccc(Oc4cccc(C(F)(F)F)c4)c(Cl)c3)c21` [Example 176, 5-{2-[2-(tert-butylsulfonyl)ethoxy]ethyl}-N-{3-chloro-4-[3-(trifluoromethyl)phenoxy]phenyl}-5H-pyrrolo[3,2-d]pyrimidin-4-amine] is below 100 nM.

One may read the IC50 as the midpoint of a concentration-inhibition curve.
